Measured values as given in patent US4479945A, “Inter-m-phenylene-prostacyclin analogues and use thereof in inhibiting blood platelet aggregation” (Chinoin Gyogyszer Es Vegyeszeti Termekek Gyara R.T., priority 1981, dated 1984).
Values after ≈ are worked out from the molar mass of the structure shown. “Also recorded” adds a separate entry of the source.

How the values were obtained:
blood pressure = assay: Antihypertensive activity (blood pressure reduction, ED25) on narcotized rats; assay type: in vivo, rat; settings: for hypotensive / antihypertensive side effect (in words): compared with PGI2 or compounds of the state of art; for relative anti-hypertensive efficiency ED25 PGI2 /ED25 test-compound: molar dose for 25 mmHg blood pressure reduction, narcotized rats, sodium salts
Experimental: The antihypertensive activity was determined on narcotized rats. From the data of the blood pressure tests the molar dose /ED25 / inducing 25 mmHg /3.33 kPa/ blood pressure reduction was calculated.

thrombocyte aggregation [1] = assay: Thrombocyte (blood platelet) aggregation, Payton aggregometer, induced with 2 μM ADP, plasma enriched in thrombocytes (PRP); assay type: cell-based, human; settings: for antiaggregatory activity (in words): compared with PGI2 or compounds of the state of art
Experimental: The thrombocyte aggregation was measured with a Payton type aggregometer of two channels in 0.5 ml. end volume. […] The cubital venal blood was mixed with a 3.8% Na-citrate solution at a ratio of 9:1 and in order to obtain a plasma enriched in thrombocytes (PRP) blood was centrifuged for 5 minutes at 230 g, while plasma poor in thrombocytes was obtained after 10 minutes of centrifuging. The blood platelet number of the plasma was adjusted to […]. The tests were performed within 1 hour after the blood taking. The prostacycline sensitivity of each plasma was controlled before measuring the test substances. IC50 value of prostacycline on plasma enriched in thrombocytes: 0.6-1.0 ng/ml.
Thrombocyte aggregation was induced with 2 μM ADP. The test compounds were dissolved in 0.1M tris-HCl buffer of pH=7.8 and the temperature was maintained at 0° to 4° C.
The compounds were tested repeatedly after some time and were kept in solution at 0°-4° C. IC50 values were calculated graphically.

thrombocyte aggregation [2] = settings: literature; cited from earlier work
[3] = test system: coronary arteries of the heart; peripheral circulation vessels; settings: literature; cited from earlier work

| Compound | hypotensive / antihypertensive side effect (in words) (blood pressure) | antiaggregatory activity (in words) (thrombocyte aggregation [1]) | relative anti-hypertensive efficiency ED25 PGI2 /ED25 test-compound (blood pressure; related to PGI2) | also measured |
| --- | --- | --- | --- | --- |
| CCCCCCC(O)C#CC1C(O)CC2OC(=Cc3cccc(C(=O)O)c3)CC21 (centres unmarked) [compound "A", 5(Z)-2,3,4-trinor-1,5-inter-m-phenylene-13,14-didehydro-20-methyl-PGI2] | less side effects | better activity | – | – |
| CCCCCC(O)C=CC1C(O)CC2OC(=Cc3cccc(C(=O)O)c3)CC21 (centres unmarked) [45842/A, 5(Z)-2,3,4-trinor-1,5-inter-m-phenylene-PGI2] | – | – | 1/10 | – |
| CCCCCCCC(O)C#CC1C(O)CC2OC(=Cc3cccc(C(=O)O)c3)CC21 (centres unmarked) [compound "B", 5(Z)-2,3,4-trinor-inter-m-phenylene-13,14-didehydro-20-ethyl-PGI2] | less side effects | better activity; also recorded: substantially the same as that of PGI2 | – | antihypertensive activity as part of the activity of PGI2 (blood pressure; related to PGI2): about 2/100 |
| CCCCC[C@H](O)/C=C/[C@@H]1[C@H]2C/C(=C/CCCC(=O)O)O[C@H]2C[C@H]1O [PGI2] | – | – | 1/1 | antiaggregatory and desaggregatory activity (in words) (thrombocyte aggregation [2]): most active antiaggregatory and desaggregatory agent; further physiological activities (in words) [3]: relaxation of the coronary arteries of the heart and dilatation of the peripheral circulation vessels; IC50 (thrombocyte aggregation [1]; Homo sapiens, Platelet, control of prostacycline sensitivity of each plasma): 0.6 to 1 ng/mL (≈ 1.7 to 2.84 nM); relative anti-aggregatory efficiency IC50 PGI2 /IC50 test-compound (thrombocyte aggregation [1]; related to PGI2, 2 μM ADP, human PRP, sodium salts): 1/1 |
